By IC50 is commonly meant the point on the concentration scale where inhibition reaches its midpoint. Broadly, the Kd is the free concentration of one partner at which half of the binding sites on the other are occupied at equilibrium, for simple one-to-one binding.

Where two headings read alike, the source gives them in different places. Positions of bridges follow the written chain, without caps; N, C: chain ends. Primed or numbered codes have the meaning given here. PEG8′ = 8 PEG blocks attached at the backbone of the C-terminal amino acid

Data on six molecules can be found in patent US20180057538A1, “POTENT AND HIGHLY SOLUBLE PEGYLATED COMPSTATIN PEPTIDES” (The Regents of the University of California, priority 2016, published 2018).

In data set [1] the test system is complement activation. The conditions noted are these: alternative pathway-mediated erythrocyte lysis assay; cited from earlier work.
Data set [2] relates to complement activation. The data set is described as follows: Hemolytic assay (rabbit erythrocytes lysed by normal human serum in VBS-MgEGTA). The format is cell-based. The conditions noted are these: ligand concentration at 50% maximal inhibition, triplicate runs (N = 3). On the procedure:
Rabbit erythrocytes (Complement Technology, Inc, Tyler, Tex., USA) were washed with PBS and then resuspended in a veronal-buffered saline solution containing 5 mM MgCl2 and 10 mM EGTA (VBS-MgEGTA). Two-fold serial dilutions of the compstatin analogs were performed in round-bottom 96-well plates and then further diluted in VBS-MgEGTA. Normal human serum (NHS; Complement Technology, Inc) diluted in VBS-MgEGTA was added to each well followed by incubation at ambient temperature for 15 minutes. Subsequently, 30 μL of rabbit erythrocytes at a concentration of 1.25×10^8 cells/mL were added to each well. Positive controls for lysis consisted of: (1) erythrocytes in deionized water and (2) erythrocytes in NHS diluted with VBS-MgEGTA. Negative controls for lysis consisted of: (1) erythrocytes in VBS-MgEGTA and (2) erythrocytes in NHS diluted in VBS-EDTA. Next, plates were incubated at 37° C. for 20 minutes and then ice cold VBS containing 50 mM EDTA was added to each well to quench hemolytic reactions. Plates were centrifuged at 1000×g for 5 minutes and the supernatant was diluted 1:1 with deionized water in flat-bottom 96-well plates. Absorbance was measured spectrophotometrically at 405 nm to quantify lysis.

For data set [3], the system named is NHS-induced basal C5b-9n deposition by RPE cells. The data set is described as follows: Human RPE cell-based assay, anti-C5b-9n immunofluorescence of sub-RPE deposits. The conditions noted are these: for reduction in NHS-induced basal C5b-9n deposition: 2 μM peptide, 10% NHS, 24 h, decellularized whole mounts, normalized to NHS-treated samples. Here is the method: The in vitro model of drusen biogenesis was used according to Johnson et al. (Proceedings of the National Academy of Sciences of the United States of America 2011; 108(45):18277-82) and used in assessing the efficacy of compstatin peptides. Briefly, human fetal RPE cells within the second passage were grown on laminin-coated porous inserts (Millipore, Billerica, Mass., USA) in Miller medium supplemented with 5% fetal bovine serum (FBS, HyClone, Logan, Utah, USA) at 37° C. and 5% CO2 in a humidified incubator. After culturing for 2-3 months, cells were rinsed with PBS and treated with Miller medium containing either 5% FBS (negative control) or 10% NHS without or with the inhibitory peptides (2 μM). The choice of 2 μM dose for this assay was based on the intent to use double the IC50 concentration, which was determined to be ˜1 μM. All inhibitory peptides were pre-mixed with NHS on a rocker at room temperature for 30 min and then warmed to 37° C. prior to addition to RPE cell cultures for 24 h. […]
Immunolabeled RPE sections and decellularized culture inserts were imaged using a Leica SP5 confocal microscope. Single-plane images from multiple non-overlapping areas were acquired using a 63× objective, and C5b-9n (MAC) immunofluorescence signals were quantified using ImageJ (NIH), as described Gorham et al. (Experimental Eye Research 2013; 116:96-108). Briefly, the thresholding tool of ImageJ was used to analyze each color channel separately, with the upper threshold set to include C5b-9n-associated fluorescence and the lower threshold set to eliminate any background fluorescence. For statistical analysis, fluorescence intensity measurements of C5b-9n were averaged with respect to the number of RPE nuclei per image (for vibratome sections) or total image area (for decellularized whole-mount samples) and then expressed as a percentage of the corresponding fluorescence intensities from samples exposed to NHS in the absence of any inhibitory peptide (positive control). All data were obtained from multiple images (n≧9) and expressed as mean±SEM. […]

A short description of data set [4]: Apparent solubility measurements in PBS pH 7.4. It counts as physicochemical. The conditions noted are these: PBS pH 7.4, 5-10 mg/mL. On the procedure:
Compstatin analogs were dissolved in phosphate buffered saline (PBS) at pH 7.4 to concentrations of 10, 7.5, and 5 mg/mL. At each concentration point, the peptide solutions were vortexed for 30 seconds and then centrifuged at 13000×g for 5 minutes. The supernatant was collected and measured 5 times spectrophotometrically at 280 nm. Optical densities were converted into concentration according to Beer-Lambert law. An extinction coefficient of 11125 M^−1 cm^−1 was used for each compstatin analog since each peptide contains two tryptophan amino acids (tryptophan extinction coefficient being 5562.5 M^−1 cm^−1).

Data set [5] has as its target complement C3 in normal human serum (human, UniProt P01024 23-1663). As to the kind of experiment: cell-based or functional assay.
The target in data set [6] is T1, purified C3c (Complement Technology) (UniProt P01024 23-667; P01024 749-954; P01024 1321-1663, limits assumed).
T1 construct: domain: C3c; C3c is a multi-chain proteolytic fragment of C3; also called complement protein C3c
The data set is described as follows: competitive microscale thermophoresis (Monolith NT.115); Peptide 2 titrated against Cy5-labeled Competition Peptide on purified C3c. Here is the method: (§1) The binding affinity of Peptide 2 was evaluated in a competitive microscale thermophoresis assay, using a Monolith NT.115 instrument (NanoTemper Technologies GmbH, Munich, Germany). Competition was performed against the Competition Peptide, labeled with Cy5 for signal detection. Two different 1:1 serial dilution series of Peptide 2 were performed in MST buffer (50 mM Tris-HCl, 150 mM NaCl, 10 mM MgCl₂, 0.05% Tween 20). The first dilution series started with a final concentration of 333 μM and ended in a final concentration of 40.69 nM, while the second dilution series started with a final concentration of 166.67 μM and ended in a final concentration of 20.35 nM. To each dilution series of Peptide 2, purified C3c (Complement Technology) and the Competition Peptide (unlabeled form) were dissolved to final concentrations of 117 nM (Peptide 2) and 50 nM (Competition Peptide). The resulting mixture was incubated for 15 minutes in the dark at room temperature. Following the incubation, the samples were loaded into hydrophilic capillary tubes and the thermophoretic response of the fluorescently labeled marker was measured. […]
(§2) The binding affinity of Peptide 2 to C3c was determined using the microscale thermophoresis assay described herein. […]
In general terms: Microscale thermophoresis detects binding through changes in fluorescence in a small temperature gradient.

The target in data set [7] is T1, purified C3c (Complement Technology). As to the kind of experiment: competitive microscale thermophoresis: Peptide 2 titrated against C3c in the presence of the Cy5-labeled Competition Peptide, mean±SEM of 7 replicates. Here is the method: The labeled form of the Competition Peptide was used. Thermophoretic data is plotted as mean±SEM from 7 replicate experiments, together with the fitted binding curve. The dotted lines in red indicate the 95% confidence interval of the fitted binding curve. The black dotted line represents the baseline thermophoretic response in the absence of binding. The inset table indicates the KD±SEM.
as §1, with “To each dilution series of Peptide 2, purified C3c (Complement Technology) and the Competition Peptide (unlabeled form) were dissolved to final concentrations of 117 nM (Peptide 2) and 50 nM (Competition Peptide). The resulting mixture was incubated for 15 minutes in the dark at room temperature.” left out
as §2

complement C3 in normal human serum, sequence (P01024 23-1663 limits assumed): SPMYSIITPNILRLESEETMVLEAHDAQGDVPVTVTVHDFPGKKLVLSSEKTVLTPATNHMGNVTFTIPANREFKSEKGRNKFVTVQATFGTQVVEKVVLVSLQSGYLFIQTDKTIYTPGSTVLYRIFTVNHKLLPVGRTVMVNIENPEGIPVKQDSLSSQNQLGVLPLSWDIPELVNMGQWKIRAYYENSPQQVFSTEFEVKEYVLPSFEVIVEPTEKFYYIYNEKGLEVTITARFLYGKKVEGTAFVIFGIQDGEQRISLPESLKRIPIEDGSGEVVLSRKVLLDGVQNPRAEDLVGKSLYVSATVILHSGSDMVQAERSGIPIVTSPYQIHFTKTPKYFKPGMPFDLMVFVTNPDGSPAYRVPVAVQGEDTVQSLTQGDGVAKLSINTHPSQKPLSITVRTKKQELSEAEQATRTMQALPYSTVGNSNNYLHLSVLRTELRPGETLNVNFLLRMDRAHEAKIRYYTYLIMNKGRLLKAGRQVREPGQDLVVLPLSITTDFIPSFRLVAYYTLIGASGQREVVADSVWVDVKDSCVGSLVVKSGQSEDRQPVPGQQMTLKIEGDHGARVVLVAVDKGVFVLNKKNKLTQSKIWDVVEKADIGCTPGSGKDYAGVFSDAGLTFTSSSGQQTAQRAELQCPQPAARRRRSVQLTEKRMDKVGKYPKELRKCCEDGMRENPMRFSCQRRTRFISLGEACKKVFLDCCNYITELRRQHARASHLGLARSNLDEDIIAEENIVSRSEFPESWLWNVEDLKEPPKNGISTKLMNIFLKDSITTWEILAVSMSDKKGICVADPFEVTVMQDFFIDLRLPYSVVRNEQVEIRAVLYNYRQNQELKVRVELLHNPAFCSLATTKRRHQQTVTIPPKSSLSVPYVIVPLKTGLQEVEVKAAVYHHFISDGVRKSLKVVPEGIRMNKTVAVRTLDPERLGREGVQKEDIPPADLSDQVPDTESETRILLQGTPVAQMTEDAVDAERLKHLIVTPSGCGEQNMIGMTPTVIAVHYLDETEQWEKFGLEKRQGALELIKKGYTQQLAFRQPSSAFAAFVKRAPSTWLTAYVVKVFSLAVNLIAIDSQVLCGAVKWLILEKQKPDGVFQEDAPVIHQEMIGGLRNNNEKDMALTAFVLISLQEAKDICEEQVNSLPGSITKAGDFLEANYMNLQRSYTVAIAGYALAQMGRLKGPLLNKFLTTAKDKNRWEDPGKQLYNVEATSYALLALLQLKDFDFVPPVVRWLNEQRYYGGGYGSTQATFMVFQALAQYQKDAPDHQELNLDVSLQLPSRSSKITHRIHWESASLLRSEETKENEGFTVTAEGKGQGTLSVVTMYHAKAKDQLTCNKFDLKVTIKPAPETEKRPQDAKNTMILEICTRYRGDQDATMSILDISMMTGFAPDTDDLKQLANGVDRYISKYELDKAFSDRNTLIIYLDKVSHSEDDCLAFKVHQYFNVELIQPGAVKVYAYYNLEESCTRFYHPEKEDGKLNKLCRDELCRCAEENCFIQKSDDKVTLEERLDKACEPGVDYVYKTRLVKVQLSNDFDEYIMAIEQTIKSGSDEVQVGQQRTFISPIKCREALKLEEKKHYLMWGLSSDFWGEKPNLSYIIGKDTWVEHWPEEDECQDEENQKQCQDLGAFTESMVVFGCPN
T1 sequence (P01024 23-667 limits assumed, chain 1 of 3): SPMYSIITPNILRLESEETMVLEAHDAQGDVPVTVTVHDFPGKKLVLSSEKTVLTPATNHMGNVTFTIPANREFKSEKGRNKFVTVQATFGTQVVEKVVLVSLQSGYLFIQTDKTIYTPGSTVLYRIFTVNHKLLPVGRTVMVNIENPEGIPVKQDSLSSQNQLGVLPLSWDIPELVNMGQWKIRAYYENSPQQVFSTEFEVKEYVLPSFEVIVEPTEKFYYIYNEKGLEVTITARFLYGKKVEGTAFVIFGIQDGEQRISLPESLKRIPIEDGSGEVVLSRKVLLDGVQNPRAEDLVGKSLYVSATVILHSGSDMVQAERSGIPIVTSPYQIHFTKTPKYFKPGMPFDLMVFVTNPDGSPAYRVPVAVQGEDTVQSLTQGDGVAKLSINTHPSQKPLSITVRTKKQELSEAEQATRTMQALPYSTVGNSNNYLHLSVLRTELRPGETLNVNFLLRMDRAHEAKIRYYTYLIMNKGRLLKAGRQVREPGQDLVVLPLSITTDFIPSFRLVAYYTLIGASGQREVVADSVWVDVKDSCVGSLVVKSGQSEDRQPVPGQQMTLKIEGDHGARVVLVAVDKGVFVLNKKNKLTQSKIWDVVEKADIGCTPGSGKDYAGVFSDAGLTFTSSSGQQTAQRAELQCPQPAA
T1 sequence (P01024 749-954 limits assumed, chain 2 of 3): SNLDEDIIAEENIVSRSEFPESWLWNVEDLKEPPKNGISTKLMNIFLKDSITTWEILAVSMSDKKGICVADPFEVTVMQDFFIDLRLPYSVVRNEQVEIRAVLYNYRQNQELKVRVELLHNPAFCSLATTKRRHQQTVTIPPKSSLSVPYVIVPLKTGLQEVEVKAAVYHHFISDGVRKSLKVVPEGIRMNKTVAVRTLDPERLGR
T1 sequence (P01024 1321-1663 limits assumed, chain 3 of 3): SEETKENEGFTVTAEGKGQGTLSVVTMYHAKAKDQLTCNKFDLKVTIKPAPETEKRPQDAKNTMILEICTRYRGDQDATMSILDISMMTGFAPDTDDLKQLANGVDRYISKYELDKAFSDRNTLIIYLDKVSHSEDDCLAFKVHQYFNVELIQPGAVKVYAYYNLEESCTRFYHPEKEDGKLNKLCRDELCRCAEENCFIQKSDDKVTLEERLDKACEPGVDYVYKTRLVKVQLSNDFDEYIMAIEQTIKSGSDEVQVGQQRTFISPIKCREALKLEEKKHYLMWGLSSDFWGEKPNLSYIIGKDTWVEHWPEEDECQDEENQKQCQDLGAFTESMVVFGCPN

As for `CC[C@H](C)[C@H](N)C(=O)N[C@H]1CSSC[C@@H](C(=O)N[C@H](C(N)=O)[C@@H](C)O)NC(=O)[C@H](CCCN=C(N)N)NC(=O)[C@H](Cc2cnc[nH]2)NC(=O)[C@H](Cc2cnc[nH]2)NC(=O)CNC(=O)[C@H](Cc2c[nH]c3ccccc23)NC(=O)[C@H](CC(=O)O)NC(=O)[C@H](CCC(N)=O)NC(=O)[C@H](C(C)C)NC(=O)[C@H](C(C)C)NC1=O` [compstatin, ICVVQDWGHHRCT], the IC50 in data set [1] was around 12.9 µM.

`CC[C@H](C)[C@H](NC(=O)[C@H](CO)NC(=O)[C@H](CCCNC(=N)N)NC(C)=O)C(=O)N[C@H]1CSSC[C@@H](C(=O)N[C@H](C(=O)NCCOCCOCCOCCOCCOCCOCCOCCOCCC(N)=O)[C@@H](C)O)NC(=O)[C@H](CCCNC(=N)N)NC(=O)[C@H](Cc2c[nH]cn2)NC(=O)[C@H](C)NC(=O)CNC(=O)[C@H](Cc2c[nH]c3ccccc23)NC(=O)[C@H](CC(=O)O)NC(=O)[C@H](CCC(N)=O)NC(=O)[C@H](Cc2c[nH]c3ccccc23)NC(=O)[C@H](C(C)C)NC1=O` [Peptide 2, Ac-RSI[CVWQDWGAHRC]T-PEG8-NH2]: the IC50 in data set [2] was 960 nM. Besides, the “reduction in NHS-induced basal C5b-9n deposition” value in data set [3] is 80%. In addition, the “inhibitory effect relative to parent Peptide 1” value in data set [3] (formation of C5b-9-rich sub-RPE deposits) was “two-fold greater inhibitory effect”. In addition, the “apparent solubility (comparison)” value in data set [4] is “significantly higher apparent solubility than the parent Peptide 1 and the Competition Peptide”. The “slope of correlation between calculated and observed concentrations” value in data set [4] (absorbance at 280 nm) was 0.92.

Take “Ac-RSI[CVWQDWGAHRC]T-NH2 (Ac-RSICVWQDWGAHRCT-NH2; disulfide 4-14) [Peptide 1, reference compound]”: in data set [3], the “reduction in NHS-induced basal C5b-9n deposition” value came out at 50%.

B1: Peptide 2, Ac-RSI[CVWQDWGAHRC]T-PEG8-NH2 (peptide)
peptide: Ac-RSICVWQDWGAHRCT-{PEG8′-NH2}
modifications: disulfide 4-14
notes: Synthetic compstatin analog with an Arg-Ser N-terminal extension and a C-terminal PEG8; molecular mass 2279; also called PEGylated Peptide 2; PEGylated compstatin peptide
For the molecule B1, in data set [5], the “Mean IC50, hemolytic assay (rabbit erythrocytes, normal human serum, alternative pathway)” value (“Mean IC50, hemolytic assay” for short) worked out at 0.96 µM. This molecule gave a Kd in data set [6] of 690 nM. Besides, in data set [7], the “IC50 (read off the curve)” value was around 0.7 µM.

B2: Competition Peptide, unlabeled, Ac-I[CVWQDWGAHRC]TAGK-NH2 (peptide)
peptide: Ac-ICVWQDWGAHRCTAGK-NH2
modifications: disulfide 2-12
SMILES: CC[C@H](C)[C@H](NC(C)=O)C(=O)N[C@H]1CSSC[C@@H](C(=O)N[C@H](C(=O)N[C@@H](C)C(=O)NCC(=O)N[C@@H](CCCCN)C(N)=O)[C@@H](C)O)NC(=O)[C@H](CCCNC(=N)N)NC(=O)[C@H](Cc2c[nH]cn2)NC(=O)[C@H](C)NC(=O)CNC(=O)[C@H](Cc2c[nH]c3ccccc23)NC(=O)[C@H](CC(=O)O)NC(=O)[C@H](CCC(N)=O)NC(=O)[C@H](Cc2c[nH]c3ccccc23)NC(=O)[C@H](C(C)C)NC1=O
On to B2, for which the “Mean IC50, hemolytic assay” value in data set [5] stood at 1.4 µM.

In the case of Ac-RSICVWQDWGAHRCT-NH2 (disulfide 4-14) [Peptide 1, Ac-RSI[CVWQDWGAHRC]T-NH2], in data set [5], the “Mean IC50, hemolytic assay” value is 0.97 µM.
